Measurements from US9199922B2, “Dihalophenoxyphenylamidines and use thereof as fungicides” (BAYER INTELLECTUAL PROPERTY GMBH, priority 2007, dated 2015).
Read-outs that look alike come from different tables or passages of the source.

Assay: logP determination (acidic / neutral)
Assay type: physicochemical
[1] = pH 2.3, read-out: log P (pH 2.3)

Structure (SMILES)	logP acidic	logP neutral (neutral)	log P (pH 2.3) (pH 2.3)	logP [1]	logP (neutral, read-out: logP neutral)
Cc1cc(Oc2cc(F)cc(I)c2)c(C)cc1N=CN1CCCCC1 [Compound 21]	2.6	6.8			
Cc1cc(Oc2ccc(Br)c(Br)c2)c(C)cc1N=CN1CCCCC1 [Compound 39]	2.48	6.93			
CCN(C)C=Nc1cc(C)c(Oc2ccc(Cl)c(Br)c2)cc1C [Compound 15]	2.23	6.1			
CCCN(C)C=Nc1cc(C)c(Oc2cc(F)cc(Br)c2)cc1C [Compound 28]	2.91	6.9			
CCN(C)C=Nc1cc(C)c(Oc2cc(Cl)cc(Br)c2)cc1C [Compound 6]	2.56	6.4			
Cc1cc(Oc2cc(Br)cc(Br)c2)c(C)cc1N=CN(C)C(C)C [Compound 5]	2.62	6.4			
CCCN(C)C=Nc1cc(C)c(Oc2cc(F)cc(I)c2)cc1C [Compound 20]	2.61	6.6			
Cc1cc(Oc2cc(F)cc(Br)c2)c(C)cc1N=CN1CCCCC1 [Compound 12]	2.55	6.5			
CCN(C)C=Nc1cc(C)c(Oc2ccc(Br)c(F)c2)cc1C [Compound 32]	2.2				
C=CCN(C)C=Nc1cc(C)c(Oc2ccc(Br)c(Br)c2)cc1C [Compound 37]	2.24	6.3			
CCN(C)C=Nc1cc(C)c(Oc2cc(F)cc(Br)c2)cc1C [Compound 3]	2.29	5.8			
Cc1cc(Oc2cc(F)cc(Br)c2)c(C)cc1N=CN(C)CC1CC1 [Compound 40]	2.25				
Cc1cc(Oc2ccc(Cl)c(I)c2)c(C)cc1N=CN1CCCCC1 [Compound 26]	2.52				
CCN(C)C=Nc1cc(C)c(Oc2ccc(Br)c(I)c2)cc1C [Compound 27]	2.67	6.1			
Cc1cc(Oc2ccc(Br)c(F)c2)c(C)cc1N=CN1CCCCC1 [Compound 31]	2.39				
Cc1cc(Oc2ccc(Cl)c(I)c2)c(C)cc1N=CN(C)C(C)C [Compound 24]	2.4	6.2			
CCCN(C)C=Nc1cc(C)c(Oc2cc(F)cc(Cl)c2)cc1C [Compound 11]	2.39	6.1			
Cc1cc(Oc2cc(F)cc(Br)c2)c(C)cc1N=CN1CC(C)OC(C)C1 (stereo not shown) [Compound 29]	2.59	5.8			
CCN(C)C=Nc1cc(C)c(Oc2ccc(Cl)c(I)c2)cc1C [Compound 25]	2.29				
CCCN(C)C=Nc1cc(C)c(Oc2ccc(Br)c(Br)c2)cc1C [Compound 38]	2.45	6.62			
Cc1cc(Oc2ccc(Cl)c(Cl)c2)c(C)cc1N [4-(3,4-Dichlorophenoxy)-2,5-dimethylaniline]				3.51	
CCN(C)C=Nc1cc(C)c(Oc2ccc(Cl)c(Cl)c2)cc1C [Compound 30, N-Ethyl-N-methyl-N′-[4-(3,4-dichlorophenoxy)-2,5-dimethylphenyl]formamidine]				2.48	6.07
CCN(C)C=Nc1cc(C)c(Oc2ccc(F)c(Br)c2)cc1C [Compound 23]	2.29	5.7			

Other lines, results leading:

logP acidic	logP neutral (neutral)	log P (pH 2.3) (pH 2.3)	logP [1]	logP (neutral, read-out: logP neutral)	Structure (SMILES)
2.04	5.54				CCCN(C)C=Nc1cc(C)c(Oc2cc(F)cc(F)c2)cc1C [Compound 33]
2.7	6.8				Cc1cc(Oc2cc(Cl)cc(Br)c2)c(C)cc1N=CN(C)C(C)C [Compound 7]
2.37	5.7				CCN(C)C=Nc1cc(C)c(Oc2ccc3c(c2)CCCC3)cc1C [Compound 13]
2.66	6.9				Cc1cc(Oc2ccc(Cl)c(Br)c2)c(C)cc1N=CN1CCCCC1 [Compound 16]
2.56	6.6				Cc1cc(Oc2ccc(Cl)c(Br)c2)c(C)cc1N=CN1CCCC1 [Compound 18]
2.5	6				CCN(C)C=Nc1cc(C)c(Oc2cc(Br)cc(Br)c2)cc1C [Compound 4]
2.21	5.6				CCN(C)C=Nc1cc(C)c(Oc2cc(F)cc(Cl)c2)cc1C [Compound 8]
		5.19			Cc1cc([N+](=O)[O-])c(C)cc1Oc1ccc(Cl)c(Cl)c1 [4-(3,4-Dichlorophenoxy)-2,5-dimethylnitrobenzene]
2.46	6.6				Cc1cc(Oc2cc(F)cc(I)c2)c(C)cc1N=CN1CCCC1 [Compound 22]
2.03	5.79				Cc1cc(Oc2cc(F)cc(F)c2)c(C)cc1N=CN1CCCCC1 [Compound 35]
2.26	5.6				Cc1cc(Oc2cc(F)cc(Cl)c2)c(C)cc1N=CN1CCCC1 [Compound 10]
2.64	6.6				CCCN(C)C=Nc1cc(C)c(Oc2ccc(Cl)c(Br)c2)cc1C [Compound 17]
2.4					CCN(C)C=Nc1cc(C)c(Oc2cc(F)cc(I)c2)cc1C [Compound 19]
2.37	6.2				CCN(C)C=Nc1cc(C)c(Oc2ccc(F)c(F)c2)cc1C [Compound 2]
2.37	7.4				CCCN(C)C=Nc1cc(C)c(Oc2cc(F)cc(Br)c2)cc1C [Compound 14]
2.42	6.3				Cc1cc(Oc2cc(F)cc(Cl)c2)c(C)cc1N=CN1CCCCC1 [Compound 9]
